According to PubChem BioAssay AID1963834 (Molecular Pharmacology Branch, DTP, NCI, 2024):

Tested on: 873145-292-R-J1-PDC complex spheroid viability
Assay: Anticancer human tumor 873145-292-R-J1-PDC patient-derived renal clear cell carcinoma cell line growth inhibition [POLQ]
Conditions: for IC50: curve of first compound; for viability, T/C: stronger effect = lower value
Summary of the method: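 Growth inhibition in 3D: complex spheroids (tumor PDC, HUVEC, MSC) treated with POLQ inhibitor combinations; where Cmax unknown, highest tested concentration 10 microM, except SN-38 at 1 microM.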

[1] = second compound 0.0316 µM, first compound 0.0316 µM
[2] = second compound 0.0316 µM, first compound 0.1 µM
[3] = second compound 0.0316 µM, first compound 0.316 µM
[4] = second compound 0.0316 µM, first compound 1 µM
[5] = second compound 0.0316 µM, first compound 3.16 µM
[6] = second compound 0.0316 µM, first compound 10 µM
[7] = second compound 0.1 µM, first compound 0.0316 µM
[8] = second compound 0.1 µM, first compound 0.1 µM
[9] = second compound 0.1 µM, first compound 0.316 µM
[10] = second compound 0.1 µM, first compound 1 µM
[11] = second compound 0.1 µM, first compound 3.16 µM
[12] = second compound 0.1 µM, first compound 10 µM
[13] = second compound 0.316 µM, first compound 0.0316 µM
[14] = second compound 0.316 µM, first compound 0.1 µM
[15] = second compound 0.316 µM, first compound 0.316 µM
[16] = second compound 0.316 µM, first compound 1 µM
[17] = second compound 0.316 µM, first compound 3.16 µM
[18] = second compound 0.316 µM, first compound 10 µM
[19] = second compound 1 µM, first compound 0.0316 µM
[20] = second compound 1 µM, first compound 0.1 µM
[21] = second compound 1 µM, first compound 0.316 µM
[22] = second compound 1 µM, first compound 1 µM
[23] = second compound 1 µM, first compound 3.16 µM
[24] = second compound 1 µM, first compound 10 µM
[25] = second compound 3.16 µM, first compound 0.0316 µM
[26] = second compound 3.16 µM, first compound 0.1 µM
[27] = second compound 3.16 µM, first compound 0.316 µM
[28] = second compound 3.16 µM, first compound 1 µM
[29] = second compound 3.16 µM, first compound 3.16 µM
[30] = second compound 3.16 µM, first compound 10 µM
[31] = second compound 10 µM, first compound 0.0316 µM
[32] = second compound 10 µM, first compound 0.1 µM
[33] = second compound 10 µM, first compound 0.316 µM
[34] = second compound 10 µM, first compound 1 µM
[35] = second compound 10 µM, first compound 3.16 µM
[36] = second compound 10 µM, first compound 10 µM
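Note: spheroids exposed to compounds for 7 days before viability readout.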
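Throughout, for viability, T/C: luminescence signal used as surrogate for viable cell content; 100% = DMSO vehicle control viability.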

CCc1cc2c(N3CCc4c(cc(Cn5ccnc5)cc4-c4cn(C)nc4C(F)(F)F)C3=O)cc(C)nc2c(OC)n1 + Nc1ccc(C#CCN(C(=O)Cc2ncc(C(F)(F)F)cc2C(F)(F)F)c2ccc(F)cc2)nn1
IC50 (second compound 0.0316 µM): > 10 µM
IC50 (second compound 0.1 µM): > 10 µM
IC50 (second compound 0.316 µM): > 10 µM
IC50 (second compound 1 µM): > 10 µM
IC50 (second compound 3.16 µM): > 10 µM
IC50 (second compound 10 µM): > 10 µM
viability, T/C [1]: 92.6%
viability, T/C [2]: 110%
viability, T/C [3]: 101%
viability, T/C [4]: 91.2%
viability, T/C [5]: 80.6%
viability, T/C [6]: 75.2%
viability, T/C [7]: 103%
viability, T/C [8]: 100%
viability, T/C [9]: 77.9%
viability, T/C [10]: 93%
viability, T/C [11]: 79.2%
viability, T/C [12]: 68.6%
viability, T/C [13]: 94.4%
viability, T/C [14]: 109%
viability, T/C [15]: 74%
viability, T/C [16]: 90.7%
viability, T/C [17]: 95.8%
viability, T/C [18]: 73.6%
viability, T/C [19]: 101%
viability, T/C [20]: 92.5%
viability, T/C [21]: 91.9%
viability, T/C [22]: 95.8%
viability, T/C [23]: 77.6%
viability, T/C [24]: 76.8%
viability, T/C [25]: 97.9%
viability, T/C [26]: 104%
viability, T/C [27]: 97.6%
viability, T/C [28]: 93%
viability, T/C [29]: 85.7%
viability, T/C [30]: 78.9%
viability, T/C [31]: 105%
viability, T/C [32]: 101%
viability, T/C [33]: 98%
viability, T/C [34]: 97.3%
viability, T/C [35]: 89%
viability, T/C [36]: 69.2%

CCc1cc2c(N3CCc4c(cc(Cn5ccnc5)cc4-c4cn(C)nc4C(F)(F)F)C3=O)ccnc2c(OC)n1 + Nc1ccc(C#CCN(C(=O)Cc2ncc(C(F)(F)F)cc2C(F)(F)F)c2ccc(F)cc2)nn1
IC50 (second compound 0.0316 µM): > 10 µM
IC50 (second compound 0.1 µM): > 10 µM
IC50 (second compound 0.316 µM): > 10 µM
IC50 (second compound 1 µM): > 10 µM
IC50 (second compound 3.16 µM): > 10 µM
IC50 (second compound 10 µM): > 10 µM
viability, T/C [1]: 97.9%
viability, T/C [2]: 106%
viability, T/C [3]: 87.8%
viability, T/C [4]: 89.5%
viability, T/C [5]: 81.3%
viability, T/C [6]: 80.9%
viability, T/C [7]: 98.7%
viability, T/C [8]: 110%
viability, T/C [9]: 82.9%
viability, T/C [10]: 92.8%
viability, T/C [11]: 102%
viability, T/C [12]: 69.5%
viability, T/C [13]: 101%
viability, T/C [14]: 111%
viability, T/C [15]: 82.3%
viability, T/C [16]: 82.5%
viability, T/C [17]: 101%
viability, T/C [18]: 70.8%
viability, T/C [19]: 92.7%
viability, T/C [20]: 89.5%
viability, T/C [21]: 79.6%
viability, T/C [22]: 87.6%
viability, T/C [23]: 94.3%
viability, T/C [24]: 72.2%
viability, T/C [25]: 99.8%
viability, T/C [26]: 96.7%
viability, T/C [27]: 82.2%
viability, T/C [28]: 99.6%
viability, T/C [29]: 80.9%
viability, T/C [30]: 74.1%
viability, T/C [31]: 106%
viability, T/C [32]: 96.5%
viability, T/C [33]: 97.8%
viability, T/C [34]: 104%
viability, T/C [35]: 84.9%
viability, T/C [36]: 77.7%

COc1ccc([C@@H](O)c2cc(-c3ncnc4cc(N5CCOCC5)ccc34)c(F)cc2Cl)nn1 + Nc1ccc(C#CCN(C(=O)Cc2ncc(C(F)(F)F)cc2C(F)(F)F)c2ccc(F)cc2)nn1
IC50 (second compound 0.0316 µM): 4.69 µM
IC50 (second compound 0.1 µM): 5.13 µM
IC50 (second compound 0.316 µM): 5.16 µM
IC50 (second compound 1 µM): 6.14 µM
IC50 (second compound 3.16 µM): 5.93 µM
IC50 (second compound 10 µM): > 10 µM
viability, T/C [1]: 102%
viability, T/C [2]: 91.9%
viability, T/C [3]: 86.2%
viability, T/C [4]: 64.2%
viability, T/C [5]: 54.1%
viability, T/C [6]: 44.4%
viability, T/C [7]: 92.8%
viability, T/C [8]: 91.4%
viability, T/C [9]: 82.9%
viability, T/C [10]: 64.9%
viability, T/C [11]: 58.1%
viability, T/C [12]: 42.2%
viability, T/C [13]: 90.8%
viability, T/C [14]: 114%
viability, T/C [15]: 76.1%
viability, T/C [16]: 67.3%
viability, T/C [17]: 60.7%
viability, T/C [18]: 41.1%
viability, T/C [19]: 92.4%
viability, T/C [20]: 85.4%
viability, T/C [21]: 92.1%
viability, T/C [22]: 78.6%
viability, T/C [23]: 59.8%
viability, T/C [24]: 43%
viability, T/C [25]: 99.5%
viability, T/C [26]: 93.6%
viability, T/C [27]: 81.4%
viability, T/C [28]: 74%
viability, T/C [29]: 51%
viability, T/C [30]: 47.3%
viability, T/C [31]: 104%
viability, T/C [32]: 105%
viability, T/C [33]: 86.5%
viability, T/C [34]: 81%
viability, T/C [35]: 60%
viability, T/C [36]: 53.6%

O=C(Nc1ccc(O)c(NS(=O)(=O)c2ccc(F)cc2)c1)c1ccc(-c2ccccc2)cc1 + Nc1ccc(C#CCN(C(=O)Cc2ncc(C(F)(F)F)cc2C(F)(F)F)c2ccc(F)cc2)nn1
IC50 (second compound 0.0316 µM): > 10 µM
IC50 (second compound 0.1 µM): > 10 µM
IC50 (second compound 0.316 µM): > 10 µM
IC50 (second compound 1 µM): > 10 µM
IC50 (second compound 3.16 µM): > 10 µM
IC50 (second compound 10 µM): > 10 µM
viability, T/C [1]: 98%
viability, T/C [2]: 112%
viability, T/C [3]: 113%
viability, T/C [4]: 96.3%
viability, T/C [5]: 110%
viability, T/C [6]: 102%
viability, T/C [7]: 113%
viability, T/C [8]: 113%
viability, T/C [9]: 95.9%
viability, T/C [10]: 101%
viability, T/C [11]: 107%
viability, T/C [12]: 98.9%
viability, T/C [13]: 102%
viability, T/C [14]: 113%
viability, T/C [15]: 114%
viability, T/C [16]: 108%
viability, T/C [17]: 113%
viability, T/C [18]: 98.3%
viability, T/C [19]: 112%
viability, T/C [20]: 100%
viability, T/C [21]: 101%
viability, T/C [22]: 98.2%
viability, T/C [23]: 100%
viability, T/C [24]: 105%
viability, T/C [25]: 113%
viability, T/C [26]: 103%
viability, T/C [27]: 109%
viability, T/C [28]: 106%
viability, T/C [29]: 98.7%
viability, T/C [30]: 106%
viability, T/C [31]: 106%
viability, T/C [32]: 112%
viability, T/C [33]: 105%
viability, T/C [34]: 117%
viability, T/C [35]: 112%
viability, T/C [36]: 93.9%
